Test results taken from EP0847397B1, “WATER-SOLUBLE C-RING ANALOGUES OF 20 (S)-CAMPTOTHECIN” (DR. REDDY'S RESEARCH FOUNDATION, priority 1996, dated 1997).

Tests used:
ACHN = experiment: NCI in vitro 60 human tumor cell line assay; format: cell-based; details: RENAL CANCER, 48h, read-out: Total Growth Inhibition (TGI)
Description: (§1) Each test compound was screened against a battery of 60 human cell lines obtained from eight organs. In a typical procedure, the cell suspensions that were diluted according to the particular cell type and the expected target cell density (5000-40,000 cells per well based on cell growth characteristics) were added into 96-well microtiter plates. Inoculates were allowed a preincubation period of 24h at 37°C. for stabilization. Dilutions at twice the intended test concentrations were added at time zero in 100-µl aliquots to microtiter plate wells. Usually test compounds were evaluated at five 10-fold dilutions. The highest well concentration used in the test is 10^-4M. The cells are then incubated in the presence of drug (the test compound) for further 48h in 5% CO2 atmosphere and 100% humidity. At the end of this time, the adherent cells are fixed to the plate by means of trichloroacetic acid, and after a number of washes, the cell layer is treated with the protein stain Sulforhodamine B. The optical density which is proportional to protein mass, is then read by automated spectrophotometric plate readers at a wavelength of 515 nm. Readings are transferred to a microcomputer and final reports are generated using especially developed software.

H 460 = experiment: NCI in vitro 60 human tumor cell line assay; format: cell-based; details: H 460, NSLC, 48h
Description: as §1

COLO 205 = experiment: NCI in vitro 60 human tumor cell line assay; format: cell-based; details: COLO 205, COLON CANCER, 48h, read-out: Total Growth Inhibition (TGI)
Description: as §1

HOP 92 = experiment: NCI in vitro 60 human tumor cell line assay; format: cell-based; details: HOP 92, NSLC, 48h, read-out: Total Growth Inhibition (TGI)
BT 549 = experiment: NCI in vitro 60 human tumor cell line assay; format: cell-based; details: BT 549, BREAST, 48h, read-out: Total Growth Inhibition (TGI)
Description: as §1

UO 31 = experiment: NCI in vitro 60 human tumor cell line assay; format: cell-based; details: UO 31, RENAL, 48h, read-out: Total Growth Inhibition (TGI)
Description: as §1

OVCAR 8 = experiment: NCI in vitro 60 human tumor cell line assay; format: cell-based; details: OVCAR 8, OVARIAN, 48h, read-out: Total Growth Inhibition (TGI)
Description: (§2) Each test compound was screened against a battery of 60 human cell lines obtained from eight organs. In a typical procedure, the cell suspensions that were diluted according to the particular cell type and the expected target cell density (5000-40,000 cells per well based on cell growth characteristics) were added into 96-well microtiter plates. Inoculates were allowed a preincubation period of 24h at 37°C. for stabilization. Dilutions at twice the intended test concentrations were added at time zero in 100-µl aliquots to microtiter plate wells. Usually test compounds were evaluated at five 10-fold dilutions. The highest well concentration used in the test is 10^-4M. The cells are then incubated in the presence of drug (the test compound) for further 48h in 5% CO2 atmosphere and 100% humidity. At the end of this time, the adherent cells are fixed to the plate by means of trichloroacetic acid, and after a number of washes, the cell layer is treated with the protein stain Sulforhodamine B. The optical density which is proportional to protein mass, is then read by automated spectrophotometric plate readers at a wavelength of 515 nm.

MCF 7/ ADR = experiment: NCI in vitro 60 human tumor cell line assay; format: cell-based; details: MCF 7/ ADR, BREAST, 48h
Description: as §1

RXF 393 = experiment: NCI in vitro 60 human tumor cell line assay; format: cell-based; details: RXF 393, RENAL CANCER, 48h, read-out: Total Growth Inhibition (TGI)
Description: as §1

U 251 = experiment: NCI in vitro 60 human tumor cell line assay; format: cell-based; details: U 251, CNS, 48h, read-out: Total Growth Inhibition (TGI)
Description: as §1

SF 268 = experiment: NCI in vitro 60 human tumor cell line assay; format: cell-based; details: SF-268, 48 h, read-out: Total Growth Inhibition (TGI)
Description: as §2

A 498 = experiment: NCI in vitro 60 human tumor cell line assay; format: cell-based; details: A498, A 498, RENAL CANCER, 48h, read-out: Total Growth Inhibition (TGI)
Description: as §1

SF 295 = experiment: NCI in vitro 60 human tumor cell line assay; format: cell-based; details: SF 295, CNS, 48h, read-out: Total Growth Inhibition (TGI)
Description: as §1

H 322M = experiment: NCI in vitro 60 human tumor cell line assay; format: cell-based; details: NCI-H322M, H 322M, NSLC, 48h, read-out: Total Growth Inhibition (TGI)
Description: as §1

MCF 7 = experiment: NCI in vitro 60 human tumor cell line assay; format: cell-based; details: MCF7, MCF 7, BREAST, 48h, read-out: Total Growth Inhibition (TGI)
Description: as §1

MCF7 / ADR / RES = experiment: NCI in vitro 60 human tumor cell line assay; format: cell-based; details: MCF7 / ADR / RES, BREAST CANCER, 48h, read-out: Total Growth Inhibition (TGI)
Description: as §1

CAKI = experiment: NCI in vitro 60 human tumor cell line assay; format: cell-based; details: CAKI, RENAL CANCER, 48h, read-out: Total Growth Inhibition (TGI)
Description: as §1

HCT 15 = experiment: NCI in vitro 60 human tumor cell line assay; format: cell-based; details: HCT 15, COLON CANCER, 48h, read-out: Total Growth Inhibition (TGI)
Description: as §1

T 47D = experiment: NCI in vitro 60 human tumor cell line assay; format: cell-based; details: T47D, T 47D, BREAST, 48h, read-out: Total Growth Inhibition (TGI)
Description: as §1

MDA-MB-435 = experiment: NCI in vitro 60 human tumor cell line assay; format: cell-based; details: MDA-MB-435, BREAST, 48h, read-out: Total Growth Inhibition (TGI)
786-O = experiment: NCI in vitro 60 human tumor cell line assay; format: cell-based; details: 786-0, 786-O, RENAL CANCER, 48h, read-out: Total Growth Inhibition (TGI)
Description: as §2

HCT 116 = experiment: NCI in vitro 60 human tumor cell line assay; format: cell-based; details: HCT 116, COLON CANCER, 48h, read-out: Total Growth Inhibition (TGI)
SK OV3 = experiment: NCI in vitro 60 human tumor cell line assay; format: cell-based; details: SK-OV-3, SK OV3, OVARIAN, 48h, read-out: Total Growth Inhibition (TGI)
Description: as §2

[1] = NCI in vitro 60 human tumor cell line assay; format: cell-based; details: HCT 166, COLON CANCER, 48h, read-out: Total Growth Inhibition (TGI)
Description: as §1

HT 29 = experiment: NCI in vitro 60 human tumor cell line assay; format: cell-based
Description: as §1

H 23 = experiment: NCI in vitro 60 human tumor cell line assay; format: cell-based; details: NCI-H23, H 23, NSLC, 48h, read-out: Total Growth Inhibition (TGI)
Description: as §1

H 522 = experiment: NCI in vitro 60 human tumor cell line assay; format: cell-based; details: NCI-H522, H 522, NSLC, 48h, read-out: Total Growth Inhibition (TGI)
Description: as §1

SN12C = experiment: NCI in vitro 60 human tumor cell line assay; format: cell-based; details: RENAL CANCER, 48h, read-out: Total Growth Inhibition (TGI)
Description: as §1

EKVX = experiment: NCI in vitro 60 human tumor cell line assay; format: cell-based; details: NSLC, 48h, read-out: Total Growth Inhibition (TGI)
Description: as §1

HCC 2998 = experiment: NCI in vitro 60 human tumor cell line assay; format: cell-based; details: HCC 2998, COLON CANCER, 48h
Description: as §1

MOLT 4 = experiment: NCI in vitro 60 human tumor cell line assay; format: cell-based; details: MOLT 4, […], 48h, read-out: Total Growth Inhibition (TGI)
Description: as §1

H 226 = experiment: NCI in vitro 60 human tumor cell line assay; format: cell-based; details: NCI-H226, H 226, NSLC, 48h, read-out: Total Growth Inhibition (TGI)
Description: as §1

HOP 62 = experiment: NCI in vitro 60 human tumor cell line assay; format: cell-based; details: HOP 62, NSLC, 48h, read-out: Total Growth Inhibition (TGI)
KM 12 = experiment: NCI in vitro 60 human tumor cell line assay; format: cell-based; details: KM12, KM 12, COLON CANCER, 48h, read-out: Total Growth Inhibition (TGI)
Description: as §1

[2] = compared with 20(RS)-camptothecin of the formula 8; cited from earlier work
topoisomerase I = topoisomerase I (Homo sapiens, UniProt P11387); details: result in words; cited from earlier work
topoisomerase I, sequence (P11387 whole entry): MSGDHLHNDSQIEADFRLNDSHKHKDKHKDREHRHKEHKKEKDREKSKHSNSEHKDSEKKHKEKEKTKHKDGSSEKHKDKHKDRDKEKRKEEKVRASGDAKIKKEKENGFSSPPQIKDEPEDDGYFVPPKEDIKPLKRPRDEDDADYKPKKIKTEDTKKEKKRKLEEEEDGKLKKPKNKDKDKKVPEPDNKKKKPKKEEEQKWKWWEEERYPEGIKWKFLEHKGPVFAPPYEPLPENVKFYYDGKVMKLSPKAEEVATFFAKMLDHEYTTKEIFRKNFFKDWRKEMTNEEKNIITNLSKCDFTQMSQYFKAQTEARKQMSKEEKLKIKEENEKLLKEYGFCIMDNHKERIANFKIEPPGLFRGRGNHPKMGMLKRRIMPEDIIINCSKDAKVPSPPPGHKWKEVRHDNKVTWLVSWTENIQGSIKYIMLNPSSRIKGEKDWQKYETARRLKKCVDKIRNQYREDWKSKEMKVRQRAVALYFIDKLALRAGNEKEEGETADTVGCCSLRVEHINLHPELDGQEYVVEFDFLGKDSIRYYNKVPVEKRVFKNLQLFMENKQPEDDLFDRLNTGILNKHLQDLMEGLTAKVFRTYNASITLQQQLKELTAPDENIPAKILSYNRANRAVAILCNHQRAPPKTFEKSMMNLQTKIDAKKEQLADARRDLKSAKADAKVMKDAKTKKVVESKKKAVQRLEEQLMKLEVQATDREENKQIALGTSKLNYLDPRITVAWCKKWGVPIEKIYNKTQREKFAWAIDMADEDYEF

Q: Which IC (TGI) (ACHN) does the source give for `CC[C@@]1(O)C(=O)OCc2c1cc1n(c2=O)Cc2cc3c(CN(C)C)c(O)ccc3nc2-1` [TOPOTECAN, topotecan, reference compound] here?
A: 0.28 µM

Q: And the “Total Growth Inhibition (TGI)” value (H 460)?
A: 1.20 μm

Q: What about the IC (TGI) (H 460; Homo sapiens, NCI-H460, read-out: Total Growth Inhibition (TGI)) of the same compound?
A: 1.2 µM

Q: What about the IC (TGI) (COLO 205) of the same compound?
A: 7.94 µM

Q: And the IC (TGI) (HOP 92)?
A: 7.9 µM

Q: What about the IC (TGI) (BT 549) of the same compound?
A: > 100 µM

Q: And the IC (TGI) (UO 31)?
A: 2.51 µM

Q: What about the IC (TGI) (OVCAR 8) of the same compound?
A: 18.2 µM

Q: And the IC (TGI) (MCF 7/ ADR; Homo sapiens, NCI/ADR-RES, read-out: Total Growth Inhibition (TGI))?
A: 1.5 µM

Q: And the “Total Growth Inhibition (TGI)” value (MCF 7/ ADR)?
A: 1.5 μm

Q: What about the IC (TGI) (RXF 393) of the same compound?
A: 1.41 µM

Q: And the IC (TGI) (U 251)?
A: 2.81 µM

Q: What about the IC (TGI) (SF 268) of the same compound?
A: 56 µM

Q: And the IC (TGI) (A 498)?
A: 1.69 µM

Q: What about the IC (TGI) (SF 295) of the same compound?
A: 2.18 µM

Q: What about the IC (TGI) (H 322M) of the same compound?
A: 16.9 µM

Q: And the IC (TGI) (MCF 7)?
A: 100 µM

Q: What about the IC (TGI) (MCF7 / ADR / RES) of the same compound?
A: 1.5 µM

Q: What about the IC (TGI) (CAKI) of the same compound?
A: 0.51 µM

Q: What about the IC (TGI) (HCT 15) of the same compound?
A: 44.6 µM

Q: And the IC (TGI) (T 47D)?
A: 1.8 µM

Q: And the IC (TGI) (MDA-MB-435)?
A: 2.5 µM

Q: And the IC (TGI) (786-O)?
A: 0.12 µM

Q: What about the IC (TGI) (HCT 116) of the same compound?
A: 2.51 µM

Q: What about the IC (TGI) (SK OV3) of the same compound?
A: 5.12 µM

Q: What about the IC (TGI) [1] of the same compound?
A: 2.51 µM

Q: What about the “Total Growth Inhibition (TGI)” value (HT 29) of the same compound?
A: 100 μm

Q: And the IC (TGI) (HT 29; Homo sapiens, HT-29, 48 h, read-out: Total Growth Inhibition (TGI))?
A: > 100 µM

Q: What about the IC (TGI) (H 23) of the same compound?
A: 0.87 µM

Q: And the IC (TGI) (H 522)?
A: 4.16 µM

Q: What about the IC (TGI) (SN12C) of the same compound?
A: 1.58 µM

Q: What about the IC (TGI) (EKVX) of the same compound?
A: 100 µM

Q: What about the “Total Growth Inhibition (TGI)” value (HCC 2998) of the same compound?
A: 15.80 μm

Q: What about the IC (TGI) (HCC 2998; Homo sapiens, read-out: Total Growth Inhibition (TGI)) of the same compound?
A: 15.8 µM

Q: What about the IC (TGI) (MOLT 4) of the same compound?
A: 1.2 µM

Q: What about the IC (TGI) (H 226) of the same compound?
A: 11 µM

Q: What about the IC (TGI) (HOP 62) of the same compound?
A: 0.04 µM

Q: And the IC (TGI) (KM 12)?
A: 6.45 µM

Q: Which “in vivo antitumor activity” value [2] does the source give for `CCc1c2c(nc3ccc(OC)cc13)-c1cc3c(c(=O)n1C2)COC(=O)[C@]3(N)CC` [formula 7, 7-ethyl-10-methoxycamptothecin derivative] here?
A: increased in vivo antitumor activity

Q: With `C=C1C(=O)OCc2c1cc1n(c2=O)Cc2c-1nc1ccc(O)cc1c2CC` [formula 9, 18-noranhydrocamptothecin analogue] as the compound, how does the “inhibition of topoisomerase I activity” value (topoisomerase I) read?
A: potent camptothecin like inhibition of topoisomerase I activity
